In this experiment the test system is L1210 leukemia ip in BDF1 mice, survival T/C. The experiment is described as follows: NCI In Vivo Anticancer Drug Screen. Data for tumor model L1210 Leukemia (intraperitoneal) in B6D2F1 (BDF1) mice. To be noted: endpoint: mean survival time, higher = longer survival. The procedure, abridged: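 Value reflects the ratio of survival in compound-treated mice to survival in vehicle-treated controls, with both groups carrying the same transplanted tumor.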

Setting [1] is: dose: 12.5 mg/kg/injection, schedule: Q01DX009 (ip), vehicle: saline.
Where [2] appears, read: dose: 25.0 mg/kg/injection, schedule: Q01DX009 (ip), vehicle: saline.
[3] abbreviates: dose: 200.0 mg/kg/injection, schedule: Q04DX003 (ip), vehicle: Klucel (hydroxypropylcellulose) (HPC).
The mark [4] stands for this setting: dose: 400.0 mg/kg/injection, schedule: Q04DX003 (ip), vehicle: Klucel (hydroxypropylcellulose) (HPC).
The mark [5] stands for this setting: dose: 100.0 mg/kg/injection, schedule: Q01DX001 (ip), vehicle: Klucel (hydroxypropylcellulose) (HPC).
Where [6] appears, read: dose: 200.0 mg/kg/injection, schedule: Q01DX001 (ip), vehicle: Klucel (hydroxypropylcellulose) (HPC).
[7] abbreviates: dose: 400.0 mg/kg/injection, schedule: Q01DX001 (ip), vehicle: Klucel (hydroxypropylcellulose) (HPC).
[8] abbreviates: dose: 100.0 mg/kg/injection, schedule: Q01DX001 (ip), vehicle: saline.
Setting [9] is: dose: 200.0 mg/kg/injection, schedule: Q01DX001 (ip), vehicle: saline.
The mark [10] stands for this setting: dose: 400.0 mg/kg/injection, schedule: Q01DX001 (ip), vehicle: saline.
Setting [11] is: dose: 100.0 mg/kg/injection, schedule: Q04DX003 (ip), vehicle: Klucel (hydroxypropylcellulose) (HPC).
The mark [12] stands for this setting: dose: 12.5 mg/kg/injection, schedule: Q01DX009 (ip), vehicle: Klucel (hydroxypropylcellulose) (HPC).
Setting [13] is: dose: 25.0 mg/kg/injection, schedule: Q01DX009 (ip), vehicle: Klucel (hydroxypropylcellulose) (HPC).
The mark [14] stands for this setting: dose: 50.0 mg/kg/injection, schedule: Q01DX009 (ip), vehicle: Klucel (hydroxypropylcellulose) (HPC).

“And” between values parts separate entries of the source, which are not always exact repeats. Identical values can stand only once. Inconclusive results and toxic doses are left out.

T/C data for 22 compounds are collected here from PubChem BioAssay AID248 (DTP/NCI, 2004).

`CCN(C)CCC(C=NCC(CCN(C)CC)(CCN(C)CC)c1cccc2ccccc12)(CCN(C)CC)c1cccc2ccccc12`: the T/C is, setting by setting: (dose: 6.25 mg/kg/injection, schedule: Q01DX009 (ip), vehicle: saline) 103 % of control; under setting [1], 96 % of control; (dose: 12.5 mg/kg/injection, schedule: Q04DX003 (ip), vehicle: saline) 101 % of control; under setting [2], 111 % of control; (dose: 25.0 mg/kg/injection, schedule: Q04DX003 (ip), vehicle: saline) 106 % of control.

With `O=S(=O)(Cc1cccc(C(F)(F)F)c1)c1ccccc1-n1cccc1`, the T/C is, setting by setting: under setting [3], 90 % of control; under setting [4], 98 % of control.

Turning to `O=C(Nc1ccc(C2=NCCS2)cc1)c1ccc(C(=O)Nc2ccc(C3=NCCS3)cc2)cc1`, the T/C reads like this: (dose: 15.0 mg/kg/injection, schedule: Q01DX Z (ip), vehicle: carboxymethylcellulose (CMC)) 98 % of control; (dose: 30.0 mg/kg/injection, schedule: Q01DX Z (ip), vehicle: carboxymethylcellulose (CMC)) 96 % of control; (dose: 60.0 mg/kg/injection, schedule: Q01DX Z (ip), vehicle: carboxymethylcellulose (CMC)) 95 % of control; (dose: 120.0 mg/kg/injection, schedule: Q01DX Z (ip), vehicle: carboxymethylcellulose (CMC)) 96 % of control; (dose: 125.0 mg/kg/injection, schedule: Q01DX Z (ip), vehicle: water) 98 % of control.

In the case of `CC(=O)CC(=O)NCCCN1CCCCC1`, the T/C by setting is: (dose: 12.5 mg/kg/injection, schedule: Q01DX009 (ip), vehicle: saline with Tween-80) 103 % of control; (dose: 12.5 mg/kg/injection, schedule: Q04DX003 (ip), vehicle: saline with Tween-80) 103 % of control; (dose: 25.0 mg/kg/injection, schedule: Q01DX009 (ip), vehicle: saline with Tween-80) 100 % of control; (dose: 25.0 mg/kg/injection, schedule: Q04DX003 (ip), vehicle: saline with Tween-80) 106 % of control; (dose: 50.0 mg/kg/injection, schedule: Q04DX003 (ip), vehicle: saline with Tween-80) 97 % of control and 103 % of control.

Turning to `O=C1Nc2ccccc2C12Nc1cccnc1N2` (centres undefined), the T/C reads like this: (dose: 100.0 mg/kg/injection, schedule: Q01DX001 (ip), vehicle: saline with Tween-80) 97 % of control; (dose: 200.0 mg/kg/injection, schedule: Q01DX001 (ip), vehicle: saline with Tween-80) 87 % of control.

With `Nc1csc2ncccc12`, the T/C under setting [5] is 112 % of control, the T/C under setting [6] was 105 % of control and the T/C under setting [7] was 114 % of control.

Turning to `NOCCCCCCON`, the T/C is 95 % of control (dose: 100.0 mg/kg/injection, schedule: Q04DX003 (ip), vehicle: saline); 97 % of control (dose: 200.0 mg/kg/injection, schedule: Q04DX003 (ip), vehicle: saline); 95 % of control (dose: 400.0 mg/kg/injection, schedule: Q04DX003 (ip), vehicle: saline).

For the compound `O=NN(CCCl)C(=O)Nc1ccc(F)cc1`, the T/C runs as follows: (dose: 9.37 mg/kg/injection, schedule: Q01DX001 (ip), vehicle: carboxymethylcellulose (CMC)) 150 % of control; (dose: 12.5 mg/kg/injection, schedule: Q01DX001 (ip), vehicle: carboxymethylcellulose (CMC)) 162 % of control; (dose: 18.75 mg/kg/injection, schedule: Q01DX001 (ip), vehicle: carboxymethylcellulose (CMC)) 171 % of control; (dose: 25.0 mg/kg/injection, schedule: Q01DX001 (ip), vehicle: carboxymethylcellulose (CMC)) 253 % of control; (dose: 37.5 mg/kg/injection, schedule: Q01DX001 (ip), vehicle: carboxymethylcellulose (CMC)) 171 % of control.

Consider `c1csc(Cc2cccs2)c1`, for which the T/C was 112 % of control (dose: 50.0 mg/kg/injection, schedule: Q01DX009 (ip), vehicle: other); 112 % of control (dose: 100.0 mg/kg/injection, schedule: Q01DX009 (ip), vehicle: other); 116 % of control (dose: 200.0 mg/kg/injection, schedule: Q01DX009 (ip), vehicle: other).

For `COC(=O)C1(C)COP(=O)(N2CC2C)OC1` (centres undefined), the T/C was 101 % of control under setting [8], 101 % of control under setting [9] and 97 % of control under setting [10].

On to `CC(C)C(=O)[O][Pb]([CH3])([CH3])[CH3]`, for which the T/C (dose: 12.5 mg/kg/injection, schedule: Q04DX002 (ip), vehicle: saline) is 90 % of control.

`Nc1nc2nc(N=Nc3ccc(S(=O)(=O)N(CCCl)CCCl)cc3)[nH]c2c(=O)[nH]1`: the T/C reads like this: under setting [11], 93 % of control; under setting [3], 87 % of control; under setting [4], 96 % of control.

As for `C[N+](C)(C)C(=Nc1ccccc1)c1ccccc1`, the T/C reads like this: under setting [12], 100 % of control; under setting [13], 96 % of control; (dose: 25.0 mg/kg/injection, schedule: Q04DX003 (ip), vehicle: Klucel (hydroxypropylcellulose) (HPC)) 108 % of control; under setting [14], 100 % of control and 105 % of control; (dose: 50.0 mg/kg/injection, schedule: Q04DX003 (ip), vehicle: Klucel (hydroxypropylcellulose) (HPC)) 94 % of control; under setting [11], 100 % of control.

In the case of `COc1ccc(C)cc1NC(=O)NC(C)=O`, the T/C runs as follows: (dose: 50.0 mg/kg/injection, schedule: Q01DX009 (ip), vehicle: saline with Tween-80) 92 % of control; (dose: 100.0 mg/kg/injection, schedule: Q01DX009 (ip), vehicle: saline with Tween-80) 88 % of control; (dose: 200.0 mg/kg/injection, schedule: Q01DX009 (ip), vehicle: saline with Tween-80) 95 % of control.

For `CCc1ccc(/C(C#N)=C/c2ccc(N(C)CCC#N)cc2)cc1`, the T/C under setting [12] is 95 % of control, the T/C under setting [13] is 95 % of control and the T/C under setting [14] is 94 % of control.

For `O=C1OC(c2ccccc2)=N/C1=C1\OC(=O)c2ccccc21`, the T/C is 92 % of control under setting [14]; 86 % of control (dose: 100.0 mg/kg/injection, schedule: Q01DX009 (ip), vehicle: Klucel (hydroxypropylcellulose) (HPC)); 92 % of control (dose: 200.0 mg/kg/injection, schedule: Q01DX009 (ip), vehicle: Klucel (hydroxypropylcellulose) (HPC)); 89 % of control (dose: 400.0 mg/kg/injection, schedule: Q01DX009 (ip), vehicle: Klucel (hydroxypropylcellulose) (HPC)).

Turning to `Nc1ccccc1SCc1ccccc1`, the T/C reads like this: (dose: 100.0 mg/kg/injection, schedule: Q04DX003 (ip), vehicle: saline with Tween-80) 101 % of control; (dose: 200.0 mg/kg/injection, schedule: Q04DX003 (ip), vehicle: saline with Tween-80) 96 % of control; (dose: 400.0 mg/kg/injection, schedule: Q04DX003 (ip), vehicle: saline with Tween-80) 98 % of control.

As to `Cn1nc(C#N)c2c(N)ncnc21`, the T/C runs as follows: under setting [8], 104 % of control; under setting [9], 104 % of control; under setting [10], 101 % of control.

Turning to `Nc1ccc(C(=O)OCCCN2CCCCC2)cc1`, the T/C is 101 % of control under setting [1]; 97 % of control under setting [2]; 101 % of control (dose: 50.0 mg/kg/injection, schedule: Q01DX009 (ip), vehicle: saline).

On to `CCCCCCCCCCCCCSCCCCCCCCCCCCSCCCCCCCCCCCC`, for which the T/C under setting [5] is 89 % of control, the T/C under setting [6] was 88 % of control and the T/C under setting [7] is 89 % of control.

As for `Cc1cn2ccccc2c[n+]1=O`, the T/C is, setting by setting: (dose: 5.0 mg/kg/injection, schedule: Q01DX009 (ip), vehicle: saline sonified) 98 % of control; (dose: 10.0 mg/kg/injection, schedule: Q01DX009 (ip), vehicle: saline sonified) 98 % of control; (dose: 20.0 mg/kg/injection, schedule: Q01DX009 (ip), vehicle: saline sonified) 87 % of control.

On to `Cc1nnnn1C12CC3CC(CC(C3)C1)C2`, for which the T/C was 110 % of control (dose: 18.8 mg/kg/injection, schedule: Q01DX001 (ip), vehicle: saline); 100 % of control (dose: 37.5 mg/kg/injection, schedule: Q01DX001 (ip), vehicle: saline); 105 % of control (dose: 75.0 mg/kg/injection, schedule: Q01DX001 (ip), vehicle: saline).
